Measured values as given in patent publication US10562947B2, “Compositions and methods for preventing or treating diseases, conditions or processes characterized by aberrant fibroblast proliferation and extracellular matrix deposition” (MOERAE MATRIX, INC., priority 2011, dated 2020).
Where a SMILES comes first, the peptide text is derived from it.

Experiments:
[1] = molecular target: CK1γ2(h) (Homo sapiens, UniProt P78368); assay: Kinase Profiling Assay; format: biochemical; conditions: 100 μM peptide
Method in brief: (§1)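 First, MK2 inhibitor peptides were applied to a panel of 266 human kinases; then each kinase's activity was measured in duplicate to assess off-target inhibition.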

[2] = tested on: TNF-α; assay: Circulating inflammatory cytokines, bleomycin treatment model; format: in vivo, mouse; conditions: intraperitoneal or nebulized; 24 hours after final administration
[3] = tested on: splenic T cells; assay: Autologous mixed lymphocyte reaction of splenic T cells from treated bleomycin mice; format: in vivo, mouse; conditions: day 7 to 21
Text: Recent studies highlighted a key role for T lymphocytes in bleomycin-induced fibrosis (Wilson, M. et al., The Journal of Experimental Medicine, 207(3): 535-552, 2010). […] Specifically, the ability of C57BL/6 purified antigen-presenting cells to induce proliferation in C57BL/6 T lymphocytes was examined in the assay.
C57-BL/6 mice were subjected to bleomycin injury at day 0. […] Splenic T cells were isolated and cultured alone or in the presence of autologous antigen presenting cells (APCs from C57-BL/6 mice) or stimulated with antibodies against CD3 (α-CD3) for 48 h. The cells then were radiolabeled with […] thymidine for 16 h and assessed for proliferation rates.

[4] = tested on: bleomycin-induced lung fibrosis in C57BL/6 mice; assay: Bleomycin mouse model of pulmonary fibrosis, treatment model (dosing day 14 to 28); format: in vivo; set-up: collagen deposition (hydroxyproline assay, whole left lung): dose or concentration left out as unconfirmed
Protocol: A mouse model of pulmonary fibrosis was generated by administering 0.025 U of bleomycin/PBS intratracheally to C57BL/6 mice. […] At 21 day post bleomycin delivery (for prevention model) or 28 post bleomycin delivery (for treatment model), groups of mice were sacrificed with a sodium pentobarbital injection (120 mg/kg) and the chest cavity was opened. The right mainstem bronchus was ligated and the right lung was removed. The trachea was cannulated and the left lung was perfused with 4% formaldehyde at 21 cm H2O pressure. The tissue blocks then were embedded in paraffin, and […] sections were prepared for staining. Sections from each animal were stained with hematoxylin and eosin (H&E) to visualize cells or with Masson's Trichrome staining to highlight collagen deposition. […] Stained sections were mounted onto a labeled glass slide with organic mounting medium.
The classic bleomycin model, as depicted in FIG. 10, has been used widely in the literature in the pre-fibrotic stage to test efficacy of any intervention. […]
Next, collagen deposition was determined quantitatively by using the standard hydroxyproline assay with whole left lung. Total collagen (soluble and insoluble) deposition was assessed by analyzing hydroxyproline concentrations in murine lungs day 28 post bleomycin injury.

[5] = tested on: α-SMA; assay: α-SMA immunostaining of lung sections, bleomycin treatment model; format: in vivo, mouse; conditions: 50 μg/kg/day IP or NEB, day 14 to 28; vs untreated bleomycin-injured lungs
Text: (§2) C57-BL/6 mice were subjected to bleomycin injury at day 0. […] Formalin-fixed lung tissue sections were immunostained against α-SMA. Control staining was with biotinylated secondary IgG antibody. Streptavidin-conjugated horseradish peroxidase was used with 3,3′-diaminobenzidene as substrate and nuclei was counterstained with hematoxylin. Original magnifications: 20×

[6] = tested on: human airway smooth muscle (HASM); assay: ISO-induced relaxation of intact airway tissues in muscle bath; conditions: 200 μM pre-treatment for 30 min; n=4
Protocol: (§3) (A) Representative tracings of force generation. Cumulative contractile responses to CCH (B) and % relaxation to ISO doses (C). n=4; p<0.05. Inset is an immunoblot showing MK2 phosphorylation level. HASM was hung in the muscle bath and frozen. MK2 phosphorylation was determined by SDS PAGE and immunoblotting.

[7] = tested on: phospho-Thr^334-MAPKAPK2; assay: Activated MK2 immunostaining of lung sections, bleomycin treatment model; format: in vivo, mouse; conditions: 50 μg/kg daily IP or NEB, day 14 to 28
Text: as §2, with “Briefly, C57-BL/6” for “C57-BL/6”, “phospho-Thr^334 MK2.” for “α-SMA.”, “hematoxylin.” for “hematoxylin. Original magnifications: 20×”

[8] = tested on: MK2 phosphorylation; assay: MK2 phosphorylation in intact airway smooth muscle, immunoblot; set-up: species or system human; conditions: 200 μM pre-treatment for 30 min
Protocol: as §3

[9] = molecular target: PAK6(h) (Homo sapiens, UniProt Q9NQU5); assay: Kinase Profiling Assay; format: biochemical; conditions: 100 μM peptide
Method in brief: as §1

[10] = molecular target: CLK2(h) (Homo sapiens, UniProt P49760); assay: Kinase Profiling Assay; format: biochemical; conditions: 100 μM peptide
Method in brief: as §1

[11] = molecular target: CK1γ1(h) (Homo sapiens, UniProt Q9HCP0); assay: Kinase Profiling Assay; format: biochemical; conditions: 100 μM peptide
Method in brief: as §1

[12] = molecular target: T1, Plk1(h) (Homo sapiens, UniProt P53350); assay: Kinase Profiling Assay; format: biochemical; conditions: 100 μM peptide
T1 construct: purchased Millipore (IC50 Profiler Express service)
Method in brief: as §1

[13] = molecular target: c-RAF(h) (Homo sapiens, UniProt P04049); assay: Kinase Profiling Assay; format: biochemical; conditions: 100 μM peptide
Method in brief: as §1

T1 sequence (P53350 whole entry): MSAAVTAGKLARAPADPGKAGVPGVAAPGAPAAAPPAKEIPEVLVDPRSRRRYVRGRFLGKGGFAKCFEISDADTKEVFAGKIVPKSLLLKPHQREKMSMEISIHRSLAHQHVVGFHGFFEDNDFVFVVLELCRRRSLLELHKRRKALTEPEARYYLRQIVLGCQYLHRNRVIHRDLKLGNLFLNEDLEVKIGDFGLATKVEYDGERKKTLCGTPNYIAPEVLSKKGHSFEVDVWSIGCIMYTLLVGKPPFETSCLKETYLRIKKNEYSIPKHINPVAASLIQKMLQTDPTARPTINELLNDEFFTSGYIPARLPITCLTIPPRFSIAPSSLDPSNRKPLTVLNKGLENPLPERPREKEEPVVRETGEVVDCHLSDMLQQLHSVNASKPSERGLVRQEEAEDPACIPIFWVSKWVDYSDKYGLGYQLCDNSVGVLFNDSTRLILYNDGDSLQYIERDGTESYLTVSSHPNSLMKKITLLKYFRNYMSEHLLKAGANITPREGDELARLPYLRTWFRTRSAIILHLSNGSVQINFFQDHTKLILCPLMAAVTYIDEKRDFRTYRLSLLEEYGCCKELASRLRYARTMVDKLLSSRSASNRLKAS
Sequence of PAK6(h) (Q9NQU5 whole entry): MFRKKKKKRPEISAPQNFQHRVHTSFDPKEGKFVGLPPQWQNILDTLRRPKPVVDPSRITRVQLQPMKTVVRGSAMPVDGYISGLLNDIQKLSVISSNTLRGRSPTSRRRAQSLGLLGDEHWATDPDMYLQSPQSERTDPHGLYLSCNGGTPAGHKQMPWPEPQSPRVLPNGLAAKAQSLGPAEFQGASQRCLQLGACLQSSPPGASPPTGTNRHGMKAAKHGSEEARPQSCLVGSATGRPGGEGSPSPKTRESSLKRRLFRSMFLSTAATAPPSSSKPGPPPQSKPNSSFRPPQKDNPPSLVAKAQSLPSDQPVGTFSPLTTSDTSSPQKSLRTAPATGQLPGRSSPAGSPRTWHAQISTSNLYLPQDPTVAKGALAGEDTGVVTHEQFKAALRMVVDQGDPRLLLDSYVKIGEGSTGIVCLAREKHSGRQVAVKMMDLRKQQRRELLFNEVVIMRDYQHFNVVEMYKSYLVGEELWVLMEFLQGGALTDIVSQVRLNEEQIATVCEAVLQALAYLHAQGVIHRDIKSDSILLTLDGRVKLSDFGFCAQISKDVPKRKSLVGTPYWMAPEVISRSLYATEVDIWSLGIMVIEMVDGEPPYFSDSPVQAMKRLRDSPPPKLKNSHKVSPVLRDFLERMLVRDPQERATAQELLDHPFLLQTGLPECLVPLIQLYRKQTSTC
Sequence of CK1γ1(h) (Q9HCP0 whole entry): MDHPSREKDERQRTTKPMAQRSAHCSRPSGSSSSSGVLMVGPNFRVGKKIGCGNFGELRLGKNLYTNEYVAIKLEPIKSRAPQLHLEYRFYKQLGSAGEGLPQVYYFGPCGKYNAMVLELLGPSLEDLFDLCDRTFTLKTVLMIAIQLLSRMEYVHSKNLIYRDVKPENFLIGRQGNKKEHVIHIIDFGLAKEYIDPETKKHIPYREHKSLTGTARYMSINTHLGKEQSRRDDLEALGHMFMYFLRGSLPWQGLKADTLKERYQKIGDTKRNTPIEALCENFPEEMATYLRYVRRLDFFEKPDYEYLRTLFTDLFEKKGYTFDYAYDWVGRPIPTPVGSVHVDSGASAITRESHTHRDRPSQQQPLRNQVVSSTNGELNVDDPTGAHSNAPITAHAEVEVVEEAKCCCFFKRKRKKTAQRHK
Sequence of CK1γ2(h) (P78368 whole entry): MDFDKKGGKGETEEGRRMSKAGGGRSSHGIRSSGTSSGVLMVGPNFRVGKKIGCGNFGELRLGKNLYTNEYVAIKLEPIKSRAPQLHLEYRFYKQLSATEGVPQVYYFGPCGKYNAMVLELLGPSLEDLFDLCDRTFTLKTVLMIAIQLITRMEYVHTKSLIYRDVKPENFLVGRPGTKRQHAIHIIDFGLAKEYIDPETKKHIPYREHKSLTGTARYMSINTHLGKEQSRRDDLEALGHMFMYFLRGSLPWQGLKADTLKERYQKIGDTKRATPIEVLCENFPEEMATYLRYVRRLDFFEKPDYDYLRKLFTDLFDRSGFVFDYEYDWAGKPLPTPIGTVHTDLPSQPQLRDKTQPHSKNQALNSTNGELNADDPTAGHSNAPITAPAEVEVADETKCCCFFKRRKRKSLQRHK
Sequence of CLK2(h) (P49760 whole entry): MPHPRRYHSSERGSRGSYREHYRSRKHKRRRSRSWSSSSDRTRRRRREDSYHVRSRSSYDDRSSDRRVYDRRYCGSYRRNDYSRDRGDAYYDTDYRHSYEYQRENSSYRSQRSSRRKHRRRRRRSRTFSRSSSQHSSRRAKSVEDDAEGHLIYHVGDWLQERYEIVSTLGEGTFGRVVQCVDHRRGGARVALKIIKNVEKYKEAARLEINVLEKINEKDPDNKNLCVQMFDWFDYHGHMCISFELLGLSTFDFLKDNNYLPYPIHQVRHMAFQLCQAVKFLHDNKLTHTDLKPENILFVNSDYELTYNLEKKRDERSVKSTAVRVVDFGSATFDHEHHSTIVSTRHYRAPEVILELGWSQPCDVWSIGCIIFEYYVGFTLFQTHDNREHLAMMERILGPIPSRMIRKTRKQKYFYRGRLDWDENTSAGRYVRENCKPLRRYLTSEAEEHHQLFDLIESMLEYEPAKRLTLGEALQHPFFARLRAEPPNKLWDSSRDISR

FAKLAARLYRKALARQLGVAA [MMI-0300]
CK1γ2(h) % activity [1]: 123%

CC(C)C[C@H](NC(=O)[C@H](C)NC(=O)[C@H](CCCCN)NC(=O)[C@H](C)NC(=O)[C@H](CCCNC(=N)N)NC(=O)[C@H](C)NC(=O)[C@H](CCC(N)=O)NC(=O)[C@H](CCCNC(=N)N)NC(=O)[C@H](C)NC(=O)[C@H](C)NC(=O)[C@H](C)NC(=O)[C@H](CCCNC(=N)N)NC(=O)[C@H](C)NC(=O)[C@@H](N)Cc1ccc(O)cc1)C(=O)N[C@@H](C)C(=O)N[C@@H](CCCNC(=N)N)C(=O)N[C@@H](CCC(N)=O)C(=O)N[C@@H](CC(C)C)C(=O)NCC(=O)N[C@H](C(=O)N[C@@H](C)C(=O)N[C@@H](C)C(=O)O)C(C)C [MMI-0100] (H-YARAAARQARAKALARQLGVAA-OH; N-terminus and C-terminus assumed)
plasma level of TNF-α [2]: significantly reduced
proliferation of T cells in the presence of antigen presenting cells ([3]; 50 μg/kg/day intraperitoneal (systemic)): significantly reduced
proliferation of T cells in the presence of antigen presenting cells ([3]; 50 μg/kg/day nebulizer (inhaled)): not by the inhaled mode
toxicity (proliferative response of splenic T cells to α-CD3) ([3]; 50 μg/kg/day): no toxicity
collagen deposition (hydroxyproline assay, whole left lung) ([4]; IP or NEB from day 14, day 28 post bleomycin): significantly arrested further progression of collagen deposition
lung architecture and collagen distribution (H&E, Masson's blue trichrome) ([4]; intraperitoneal or nebulized, daily day 14 to 28): clearer lung parenchyma
level of α-SMA in lungs [5]: significantly attenuated
ISO-induced relaxation [6]: enhances ISO-induced relaxation
activated MK2 (phospho-Thr^334-MAPKAPK2) staining [7]: decreased phospho-Thr^334-MAPKAPK2 staining
MK2 phosphorylation level [8]: reduced MK2 phosphorylation

KAFAKLAARLYRKALARQLGVAA [MMI-0400]
PAK6(h) % activity [9]: 100%

YARAAARQARAKALNRQLGVA (Mammalian) [MMI-0200]
CLK2(h) % activity [10]: 97%
CK1γ1(h) % activity [11]: 98%
Plk1(h) % activity [12]: 128%

HRRIKAWLKKIKALARQLGVAA (Mammalian) [MMI-0500]
c-RAF(h) % activity [13]: 19%
